# How the values were obtained:
# [1] = cited from earlier work
# [2] = [gas]/[liq], grandeur sans dimension; cited from earlier work
# [3] = couples H2S/HS^- et CH3SH/CH3S^-; cited from earlier work
# [4] = Solubility limit in ethanol; format: physicochemical; conditions: organic solvent or mixture, éthanol, read-out: limite de solubilité dans l'éthanol
# Procedure: Le TMOS et l'éthanol sont mélangés dans un premier temps. Puis le volume désiré de DMPD à 0,5 M dans l'eau est introduit, suivi du volume désiré de FeCl3 à 0,5 M dans 0,267 M HCl. La quantité d'eau restante pour atteindre 1,44 mL suit l'ajout d'HCl provoquant un échauffement du sol qui est agité le temps de refroidir. Pour les formulations fortement dopées en DMPD, il est nécessaire de dissoudre la DMPD dans l'éthanol plutôt que dans l'eau. La limite de solubilité de la DMPD dans l'éthanol est de 21 mM.
# [5] = Kinetics of the probe-target reaction in aqueous solution at neutral pH; conditions: pH=7,4, target 50 µM and DTNB 5 µM (Figure 2A)
# Procedure: (§1) Or, en milieu acide, les VSC modèles, à savoir le sulfure d'hydrogène et le méthanethiol, sont peu solubles. La présente étude a donc été menée en solution à pH neutre et, par conséquent sur les formes déprotonées Na2S et (CH3)SNa des deux VSC modèles.
# Cette étude a montré que la cinétique de la réaction est suffisamment rapide pour envisager de l'employer dans un xérogel comme réaction de transduction : en moins de 5 min, l'équilibre est atteint (Figure 2A). On peut remarquer également que la réaction de détection du (CH3)SNa est moins rapide que celle de Na2S, avec en outre un moins bon rendement.
# [6] = Stability of the probe in solution as a function of pH; format: physicochemical; conditions: milieu basique, from pH 9 the disulphide bridge breaks by itself in a few hours
# Excerpt: as §1
# [7] = exposition prolongée à forte concentration; cited from earlier work
structure (smiles),measurement,setting,value
"CS [CH3SH, méthanethiol]",solubilité dans l'eau,[1],"0,48 mol.L^-1"
same,constante de Henry Hcc,[2],"1,23.10^-1"
same,pKa,[3],"12,0"
"CN(C)c1ccc(N)cc1 [DMPD, N,N-diméthylparaphénylènediamine]",solubility,[4],21 mM
"O=C(O)c1cc(SSc2ccc([N+](=O)[O-])c(C(=O)O)c2)ccc1[N+](=O)[O-] [DTNB, acide 5,5'-dithiobis(2-nitrobenzoïque)]",time to reach equilibrium of the reaction,[5],< 5 min
same,stability in solution,[6],n'est pas stable
"S [H2S, sulfure d'hydrogène]",constante de Henry Hcc,[2],"4,09.10^-1"
same,concentration causing paralysie du nerf olfactif,[7],100 à 150 ppm
same,pKa,[3],"7,0"
